Test [1] deals with HCV genotype 1b (Con1) replicon in HUH-7 cells. The test can be described thus: HCV replicon luciferase reporter assay, genotype 1b. The class given is cell-based. As to conditions: Hepatitis C virus, Huh-7, 72 h, 3 days incubation. An outline of the steps:
(§1)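 Replicon inhibition for both genotypes was measured as Renilla luciferase signal (EnduRen, 7.5 μM final, 2 h) after 3-day, 37° C exposure of replicon-bearing HUH-7 cells in 4% FCS DMEM, 0.5% DMSO. The 1b construct carries S1179I; the 1a H77 construct carries P1496L and S2204I. Twenty-point, 3-fold dilutions were fitted four-parametrically for EC50, and CC50 was taken from multiplexed Cell Titer-Blue.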
A general note: Replicon systems follow genome replication, usually without infectious particles.

In test [2] the test system is HCV genotype 1a (H77 strain) replicon in HUH-7 cells. The test is described as follows: HCV replicon luciferase reporter assay, genotype 1a. As to conditions: Hepatitis C virus, Huh-7, 72 h, 3 days incubation. The class given is cell-based. An outline of the steps: as §1
[3] abbreviates: HCV genotype 1b replicon luciferase assay, range class, read-out: LE_1b (EC50, range).
Setting [4] is: HCV genotype 1a replicon luciferase assay, range class, read-out: LE_1a (EC50, range).
[5] abbreviates: HCV genotype 1b replicon luciferase, read-out: LE_1b (EC50, range).
Where [6] appears, read: HCV genotype 1a replicon luciferase, read-out: LE_1a (EC50, range).

Drawing on patent publication US9499550B2 (BRISTOL-MYERS SQUIBB COMPANY, priority 2012, dated 2016), this text covers EC50 for 9 compounds.

Each structure is given as a SMILES string. Read-outs that look alike come from different tables or passages of the source.

For orientation: EC50 means the concentration that produces a half-maximal response. Regarding `COc1cc(F)cc2c(O[C@@H]3C[C@H]4C(=O)N[C@]5(C(=O)NS(=O)(=O)C6(CF)CC6)C[C@H]5/C=C\CC[C@@H](C)C[C@@H](C)[C@H](NC(=O)OC(C)(C)C(C)(F)F)C(=O)N4C3)nccc12` [Compound 3180, 3,3-difluoro-2-methylbutan-2-yl((2R,6S,7R,9R,13aS,14aR,16aS,Z)-2-((7-fluoro-5-methoxyisoquinolin-1-yl)oxy)-14a-(((1-(fluoromethyl)cyclopropyl)sulfonyl)carbamoyl)-7,9-dimethyl-5,16-dioxo-1,2,3,5,6,7,8,9,10,11,13a,14,14a,15,16,16a-hexadecahydrocyclopropa[e]pyrrolo[1,2-a][1,4]diazacyclopentadecin-6-yl)carbamate], the EC50 in test [1] (setting [3]) and in test [2] (setting [4]) was < 5.46 nM each time.
Turning to `COc1cc2cc(-c3ccc(OC(C)C)cc3)nc(O[C@@H]3C[C@H]4C(=O)N[C@]5(C(=O)NS(=O)(=O)C6CC6)C[C@H]5/C=C\CC[C@H](C)C[C@@H](C)[C@H](NC(=O)OC(C)(C)C)C(=O)N4C3)c2cc1F` [Compound 3181, tert-butyl ((2R,6S,7R,9S,13aS,14aR,16aS,Z)-14a-((cyclopropylsulfonyl)carbamoyl)-2-((7-fluoro-3-(4-isopropoxyphenyl)-6-methoxyisoquinolin-1-yl)oxy)-7,9-dimethyl-5,16-dioxo-1,2,3,5,6,7,8,9,10,11,13a,14,14a,15,16,16a-hexadecahydrocyclopropa[e]pyrrolo[1,2-a][1,4]diazacyclopentadecin-6-yl)carbamate], the EC50 in test [1] (setting [3]) is < 5.46 nM; in test [2] (setting [4]), 4.82 to 103 nM.
For `COc1cc2cc(-c3ccc(OC(C)C)cc3)nc(O[C@@H]3C[C@H]4C(=O)N[C@]5(C(=O)NS(=O)(=O)C6CC6)C[C@H]5/C=C\CC[C@@H](C)C[C@@H](C)[C@H](NC(=O)OC(C)(C)C)C(=O)N4C3)c2cc1F` [Compound 3182, tert-butyl ((2R,6S,7R,9R,13aS,14aR,16aS,Z)-14a-((cyclopropylsulfonyl)carbamoyl)-2-((7-fluoro-3-(4-isopropoxyphenyl)-6-methoxyisoquinolin-1-yl)oxy)-7,9-dimethyl-5,16-dioxo-1,2,3,5,6,7,8,9,10,11,13a,14,14a,15,16,16a-hexadecahydrocyclopropa[e]pyrrolo[1,2-a][1,4]diazacyclopentadecin-6-yl)carbamate], in that order: < 5.46 nM and < 5.46 nM.
For `COc1cc2cc(-c3ccc(OC(C)C)cc3)nc(O[C@@H]3C[C@H]4C(=O)N[C@]5(C(=O)NS(=O)(=O)C6(C)CC6)C[C@H]5/C=C\CC[C@H](C)C[C@@H](C)[C@H](NC(=O)OC(C)(C)C)C(=O)N4C3)c2cc1F` [Compound 3183, tert-butyl ((2R,6S,7R,9S,13aS,14aR,16aS,Z)-2-((7-fluoro-3-(4-isopropoxyphenyl)-6-methoxyisoquinolin-1-yl)oxy)-7,9-dimethyl-14a-(((1-methylcyclopropyl)sulfonyl)carbamoyl)-5,16-dioxo-1,2,3,5,6,7,8,9,10,11,13a,14,14a,15,16,16a-hexadecahydrocyclopropa[e]pyrrolo[1,2-a][1,4]diazacyclopentadecin-6-yl)carbamate], in that order: < 5.46 nM and 4.82 to 103 nM.
Regarding `COc1cc2cc(-c3ccc(OC(C)C)cc3)nc(O[C@@H]3C[C@H]4C(=O)N[C@]5(C(=O)NS(=O)(=O)C6(C)CC6)C[C@H]5/C=C\CC[C@@H](C)C[C@@H](C)[C@H](NC(=O)OC(C)(C)C)C(=O)N4C3)c2cc1F` [Compound 3184, tert-butyl ((2R,6S,7R,9R,13aS,14aR,16aS,Z)-2-((7-fluoro-3-(4-isopropoxyphenyl)-6-methoxyisoquinolin-1-yl)oxy)-7,9-dimethyl-14a-(((1-methylcyclopropyl)sulfonyl)carbamoyl)-5,16-dioxo-1,2,3,5,6,7,8,9,10,11,13a,14,14a,15,16,16a-hexadecahydrocyclopropa[e]pyrrolo[1,2-a][1,4]diazacyclopentadecin-6-yl)carbamate], the EC50 was < 5.46 nM in test [1] (setting [3]); 1.26 nM in test [1] (HCV genotype 1b replicon luciferase assay, read-out: LE_1b (EC50)); < 5.46 nM in test [2] (setting [4]); 2.78 nM in test [2] (HCV genotype 1a replicon luciferase assay, read-out: LE_1a (EC50)).
As to `COc1cc2cc(-c3ccc(OC(C)C)cc3)nc(O[C@@H]3C[C@H]4C(=O)N[C@]5(C(=O)NS(=O)(=O)C6(C)CC6)C[C@H]5/C=C\CC[C@H](C)C[C@@H](C)[C@H](NC(=O)OC(C)(C)C(F)(F)F)C(=O)N4C3)c2cc1F` [Compound 3185, 1,1,1-trifluoro-2-methylpropan-2-yl((2R,6S,7R,9S,13aS,14aR,16aS,Z)-2-((7-fluoro-3-(4-isopropoxyphenyl)-6-methoxyisoquinolin-1-yl)oxy)-7,9-dimethyl-14a-(((1-methylcyclopropyl)sulfonyl)carbamoyl)-5,16-dioxo-1,2,3,5,6,7,8,9,10,11,13a,14,14a,15,16,16a-hexadecahydrocyclopropa[e]pyrrolo[1,2-a][1,4]diazacyclopentadecin-6-yl)carbamate], the EC50 in test [1] (setting [5]) and in test [2] (setting [6]) was 4.82 to 103 nM in each case.
As to `COc1cc2cc(-c3ccc(OC(C)C)cc3)nc(O[C@@H]3C[C@H]4C(=O)N[C@]5(C(=O)NS(=O)(=O)C6(C)CC6)C[C@H]5/C=C\CC[C@@H](C)C[C@@H](C)[C@H](NC(=O)OC(C)(C)C(F)(F)F)C(=O)N4C3)c2cc1F` [Compound 3186, 1,1,1-trifluoro-2-methylpropan-2-yl((2R,6S,7R,9R,13aS,14aR,16aS,Z)-2-((7-fluoro-3-(4-isopropoxyphenyl)-6-methoxyisoquinolin-1-yl)oxy)-7,9-dimethyl-14a-(((1-methylcyclopropyl)sulfonyl)carbamoyl)-5,16-dioxo-1,2,3,5,6,7,8,9,10,11,13a,14,14a,15,16,16a-hexadecahydrocyclopropa[e]pyrrolo[1,2-a][1,4]diazacyclopentadecin-6-yl)carbamate], the EC50 in test [1] (setting [5]) and in test [2] (setting [6]) was < 5.46 nM each time.
As for `COc1cc2cc(-c3ccc(OC(C)C)cc3)nc(O[C@@H]3C[C@H]4C(=O)N[C@]5(C(=O)NS(=O)(=O)C6CC6)C[C@H]5/C=C\CC[C@H](C)C[C@@H](C)[C@H](NC(=O)O[C@@H]5C[C@@H]6C[C@@H]6C5)C(=O)N4C3)c2cc1F` [Compound 3187, (1R,3r,5S)-bicyclo[3.1.0]hexan-3-yl((2R,6S,7R,9S,13aS,14aR,16aS,Z)-14a-((cyclopropylsulfonyl)carbamoyl)-2-((7-fluoro-3-(4-isopropoxyphenyl)-6-methoxyisoquinolin-1-yl)oxy)-7,9-dimethyl-5,16-dioxo-1,2,3,5,6,7,8,9,10,11,13a,14,14a,15,16,16a-hexadecahydrocyclopropa[e]pyrrolo[1,2-a][1,4]diazacyclopentadecin-6-yl)carbamate], the EC50 in test [1] (setting [5]) and in test [2] (setting [6]) was < 5.46 nM throughout.
For the compound `COc1cc2cc(-c3ccc(OC(C)C)cc3)nc(O[C@@H]3C[C@H]4C(=O)N[C@]5(C(=O)NS(=O)(=O)C6CC6)C[C@H]5/C=C\CC[C@@H](C)C[C@@H](C)[C@H](NC(=O)O[C@@H]5C[C@@H]6C[C@@H]6C5)C(=O)N4C3)c2cc1F` [Compound 3188, (1R,3r,5S)-bicyclo[3.1.0]hexan-3-yl((2R,6S,7R,9R,13aS,14aR,16aS,Z)-14a-((cyclopropylsulfonyl)carbamoyl)-2-((7-fluoro-3-(4-isopropoxyphenyl)-6-methoxyisoquinolin-1-yl)oxy)-7,9-dimethyl-5,16-dioxo-1,2,3,5,6,7,8,9,10,11,13a,14,14a,15,16,16a-hexadecahydrocyclopropa[e]pyrrolo[1,2-a][1,4]diazacyclopentadecin-6-yl)carbamate], the EC50 in test [1] (setting [5]) and in test [2] (setting [6]) was < 5.46 nM in each case.
